From patent publication US12059422B2 (MEI Pharma, Inc., priority 2011, dated 2024)

What was measured:
[1] = biological target: T1, PI3Kγ (Mus musculus, UniProt Q9JHG7); test: ELISA assay for PI3Kγ: in-cell ELISA, phosphorylation of AKT (Ser473) in RAW 264.7 cells; assay type: cell-based; settings: cellular, pAKT (Ser473), C5a stimulation, read-out: IC50 p110γ
T1 construct: endogenous in cells; host or cells: RAW 264.7 (ATCC #TIB-71)
Method: PI3K gamma (PI3Kγ) activity was determined by measuring the phosphorylation of AKT (Ser473) using an in-cell ELISA assay. RAW 264.7 (mouse macrophage) cells were obtained from ATCC (ATCC #TIB-71). Growth medium was DMEM (CellGro #CV-10-013-CV) supplemented with 10% fetal bovine serum, 100 IU/mL penicillin, 100 μg/mL streptomycin, and 1×MEM non-essential amino acids. Phosphate buffered saline (PBS) contained 2.7 M NaCl, 54 mM KCl, 86 mM […] (dibasic, anhydrous), and 28 mM […] (monobasic, anhydrous) at pH 7.2. Stimulation mixture (10×) was 500 ng/mL recombinant human complement component C5a (R&D systems #2037-C5-025) diluted in serum-free DMEM medium (CellGro #CV-10-013-CV). Compounds for testing were dissolved and serially diluted in 100% DMSO (total of 10 concentrations), then diluted in serum-free DMEM to 2× final assay concentration. Fixative solution (2×) was 8% formaldehyde (Amresco #M134) diluted in PBS. Permeabilization solution was PBS supplemented with 0.10% Triton X-100. Blocking buffer was obtained from LiCor (LiCor #927-40000). Wash buffer was PBS supplemented with 0.1% Tween-20. Primary antibody solution was rabbit anti-pAKT^S473 monoclonal antibody (Cell Signaling #4060) and mouse anti-total S6 (Santa Cruz #74459) diluted 1:500 and 1:2000, respectively, in the blocking buffer. Secondary antibody solution was IRDye 800CW-conjugated goat anti-rabbit IgG (LiCor #926-32211) and IRDye 680LT-conjugated goat anti-mouse IgG (LiCor #926-68020) diluted 1:1000 and 1:2000, respectively, in the blocking buffer.
(§1) RAW 264.7 cells were subcultured in growth medium and seeded into flat, clear bottom, 96-well plates (Corning #3904) at 70000 cells/well, then incubated overnight in a 37° C., 5% CO2 incubator. Growth medium in plates was replaced with 100 μL/well serum-free DMEM and incubated overnight in a 37° C., 5% CO2 incubator. Fresh serum-free DMEM (50 μL/well) was added to plates. Compound treatment was performed by adding 50 μL/well of 2× compound mixture to plates and incubating for 2 hrs at 37° C., 5% CO2, after which 11 μL/well of 10× stimulation mixture was added and plates were incubated for 3 min at 37° C., 5% CO2. Fixation was performed by adding 110 μL/well of 2× fixative solution to plates and incubating for 20 min at room temperature. Permeabilization was performed by replacing fixation solution with 150 μL/well permeabilization solution and incubating for 10 min at room temperature. Permeabilization was repeated (for a total of 2 times). Permeabilization solution was replaced with 100 μL/well blocking buffer and plates were incubated for 1 hr at room temperature, after which 100 μL/well of primary antibody solution was added and plates were incubated overnight at 4° C. Plates were washed with wash buffer, after which 100 μL/well of secondary antibody solution was added to the plates and incubated in the dark for 1 hr at room temperature. Plates were washed with wash buffer, followed by awash with PBS. After completely removing PBS, plates were scanned on the Licor Odyssey Imager. Images were quantified using Licor Odyssey application software. IC50 values were determined by curve fitting using a Collaborative Drug Discovery database (www.collaborativedrug.com).

[2] = biological target: T2, PI3Kβ (Homo sapiens, UniProt P42338); test: ELISA assay for PI3Kβ: in-cell ELISA, phosphorylation of AKT (Ser473) in PC-3 cells; assay type: cell-based; settings: for IC50: cellular, pAKT (Ser473), PC-3 cells, LPA stimulation, read-out: IC50 p110β; for α/β ratio: ratio of cellular IC50 values, Table 2
T2 construct: endogenous in cells; host or cells: PC-3 (ATCC #CRL-1435)
T2 sequence (P42338 whole entry): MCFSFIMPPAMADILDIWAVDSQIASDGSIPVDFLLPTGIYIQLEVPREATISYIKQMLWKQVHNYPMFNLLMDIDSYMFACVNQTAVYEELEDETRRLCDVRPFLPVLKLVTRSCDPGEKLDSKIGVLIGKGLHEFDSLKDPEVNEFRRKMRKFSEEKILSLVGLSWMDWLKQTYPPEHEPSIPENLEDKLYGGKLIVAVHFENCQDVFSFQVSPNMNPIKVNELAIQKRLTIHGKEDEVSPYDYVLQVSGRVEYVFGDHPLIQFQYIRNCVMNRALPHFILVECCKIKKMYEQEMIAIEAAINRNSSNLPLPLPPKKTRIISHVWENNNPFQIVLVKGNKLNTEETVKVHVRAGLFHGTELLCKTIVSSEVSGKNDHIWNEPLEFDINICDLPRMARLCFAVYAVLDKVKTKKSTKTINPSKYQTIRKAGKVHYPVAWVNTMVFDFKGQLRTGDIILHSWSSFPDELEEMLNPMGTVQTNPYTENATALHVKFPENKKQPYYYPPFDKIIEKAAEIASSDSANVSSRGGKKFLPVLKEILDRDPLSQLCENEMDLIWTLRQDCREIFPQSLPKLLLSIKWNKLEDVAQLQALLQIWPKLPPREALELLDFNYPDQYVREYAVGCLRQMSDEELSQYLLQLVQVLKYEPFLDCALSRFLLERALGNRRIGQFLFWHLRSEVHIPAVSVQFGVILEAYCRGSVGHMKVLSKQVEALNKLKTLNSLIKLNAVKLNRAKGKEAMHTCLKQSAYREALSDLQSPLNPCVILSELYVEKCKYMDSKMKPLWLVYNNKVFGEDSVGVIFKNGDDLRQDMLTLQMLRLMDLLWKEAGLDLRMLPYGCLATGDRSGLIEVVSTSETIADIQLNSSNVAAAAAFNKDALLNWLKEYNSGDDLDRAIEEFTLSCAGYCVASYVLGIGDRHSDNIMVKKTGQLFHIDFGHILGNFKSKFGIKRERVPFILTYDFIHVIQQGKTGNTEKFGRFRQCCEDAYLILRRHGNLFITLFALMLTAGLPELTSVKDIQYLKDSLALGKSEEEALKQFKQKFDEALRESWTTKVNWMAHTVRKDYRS
T2 sequence (P27986 whole entry partner): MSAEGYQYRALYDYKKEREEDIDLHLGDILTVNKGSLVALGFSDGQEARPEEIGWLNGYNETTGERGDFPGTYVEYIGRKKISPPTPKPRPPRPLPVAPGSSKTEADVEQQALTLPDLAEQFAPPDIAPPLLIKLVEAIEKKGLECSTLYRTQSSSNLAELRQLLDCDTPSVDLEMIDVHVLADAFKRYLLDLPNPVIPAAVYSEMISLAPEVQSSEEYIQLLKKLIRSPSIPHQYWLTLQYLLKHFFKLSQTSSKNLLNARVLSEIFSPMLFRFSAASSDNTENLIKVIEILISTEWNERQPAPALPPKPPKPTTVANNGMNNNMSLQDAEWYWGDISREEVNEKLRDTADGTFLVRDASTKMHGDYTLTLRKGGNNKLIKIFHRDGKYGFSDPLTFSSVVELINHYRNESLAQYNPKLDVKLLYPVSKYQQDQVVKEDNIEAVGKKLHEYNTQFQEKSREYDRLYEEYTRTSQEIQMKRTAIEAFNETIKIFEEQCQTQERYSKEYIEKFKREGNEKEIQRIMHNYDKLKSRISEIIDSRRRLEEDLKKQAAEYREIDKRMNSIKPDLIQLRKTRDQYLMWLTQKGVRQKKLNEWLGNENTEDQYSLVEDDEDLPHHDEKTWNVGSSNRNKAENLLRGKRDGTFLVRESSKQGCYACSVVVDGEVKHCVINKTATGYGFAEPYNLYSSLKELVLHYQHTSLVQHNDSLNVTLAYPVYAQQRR
Method: Cellular PI3Kβ activity was determined by measuring the phosphorylation of AKT (Ser473) using an in-cell ELISA assay. PC-3 (prostate carcinoma) cells were obtained from ATCC (ATCC #CRL-1435). Growth medium was DMEM (CellGro #CV-10-013-CV) supplemented with 10% fetal bovine serum, 100 IU/mL penicillin, 100 μg/mL streptomycin, and 1×MEM non-essential amino acids. Phosphate buffered saline (PBS) contained 2.7 M NaCl, 54 mM KCl, 86 mM […] (dibasic, anhydrous), 28 mM […] (monobasic, anhydrous), pH 7.2, 10× stimulation mixture contained 50 μM LPA (Cayman #62215) diluted in serum-free DMEM medium (CellGro #CV-10-013-CV). Compounds for testing were dissolved and serially diluted in 100% DMSO (total of 10 concentrations), then diluted in serum-free DMEM to 2× final assay concentration. 2× fixative solution contained 8% formaldehyde (Amresco #M134) diluted in PBS. Permeabilization solution contained PBS supplemented with 0.1% Triton X-100. Blocking buffer was obtained from LiCor (LiCor #927-40000). Wash buffer contained PBS supplemented with 0.1% Tween-20. Primary antibody solution was rabbit anti-pAKT^S473 monoclonal antibody (Cell Signaling #4060) and mouse anti-total S6 (Santa Cruz #74459) diluted 1:500 and 1:2000, respectively, in blocking buffer. Secondary antibody solution was IRDye 800CW-conjugated goat anti-rabbit IgG (LiCor #926-32211) and IRDye 680LT-conjugated goat anti-mouse IgG (LiCor #926-68020) diluted 1:2000 and 1:1000, respectively, in blocking buffer.
as §1, with “PC-3 cells” for “RAW 264.7 cells”, “at 16000” for “at 70000”, “incubator. 50 μL/well of fresh” for “incubator. Fresh”, “DMEM” for “DMEM (50 μL/well)”, “for 10” for “for 3”, “Images” for “Images were”

T1 sequence (Q9JHG7 whole entry): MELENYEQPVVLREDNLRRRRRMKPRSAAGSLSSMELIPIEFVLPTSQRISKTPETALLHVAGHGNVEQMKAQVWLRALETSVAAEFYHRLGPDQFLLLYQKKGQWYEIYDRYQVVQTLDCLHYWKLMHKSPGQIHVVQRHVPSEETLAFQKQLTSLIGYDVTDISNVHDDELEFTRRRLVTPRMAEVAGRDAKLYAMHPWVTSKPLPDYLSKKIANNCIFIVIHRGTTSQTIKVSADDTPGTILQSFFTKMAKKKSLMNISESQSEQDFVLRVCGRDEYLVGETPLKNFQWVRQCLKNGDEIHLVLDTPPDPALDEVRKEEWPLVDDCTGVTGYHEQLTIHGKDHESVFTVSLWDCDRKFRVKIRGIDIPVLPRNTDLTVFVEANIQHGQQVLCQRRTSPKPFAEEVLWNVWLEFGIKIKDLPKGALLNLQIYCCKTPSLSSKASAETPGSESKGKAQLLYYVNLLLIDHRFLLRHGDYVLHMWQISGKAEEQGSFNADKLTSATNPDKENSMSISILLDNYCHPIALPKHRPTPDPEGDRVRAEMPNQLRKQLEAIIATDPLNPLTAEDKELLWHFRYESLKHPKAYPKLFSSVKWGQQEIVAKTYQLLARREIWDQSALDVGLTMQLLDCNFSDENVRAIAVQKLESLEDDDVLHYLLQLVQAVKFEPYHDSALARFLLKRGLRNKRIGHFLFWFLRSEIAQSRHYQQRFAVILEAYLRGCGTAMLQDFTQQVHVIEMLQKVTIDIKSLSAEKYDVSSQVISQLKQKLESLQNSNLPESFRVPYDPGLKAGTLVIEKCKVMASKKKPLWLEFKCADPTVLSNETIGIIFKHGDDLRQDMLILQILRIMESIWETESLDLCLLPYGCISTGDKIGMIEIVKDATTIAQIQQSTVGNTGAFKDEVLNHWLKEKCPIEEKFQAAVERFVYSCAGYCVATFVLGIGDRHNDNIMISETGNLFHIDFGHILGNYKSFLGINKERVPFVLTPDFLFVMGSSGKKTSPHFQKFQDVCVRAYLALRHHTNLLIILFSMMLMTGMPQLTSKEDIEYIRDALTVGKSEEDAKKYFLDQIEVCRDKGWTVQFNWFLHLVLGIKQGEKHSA

IC50 [1] [µM]	IC50 [2] [µM]	α/β ratio [2]	SMILES
≤ 0.1	≤ 0.1	A’	CC(C)(Cc1ccccc1-c1cn[nH]c1)Nc1nc(N2CCOCC2)nc(-n2c(C(F)F)nc3ccccc32)n1 [Compound A44, 4-(2-(difluoromethyl)-1H-benzo[d]imidazol-1-yl)-N-(1-(2-(1H-pyrazol-4-yl)phenyl)-2-methylpropan-2-yl)-6-morpholino-1,3,5-triazin-2-amine]
≤ 0.1	≤ 0.1	A’	Cn1cc(-c2ccccc2CC(C)(C)Nc2nc(N3CCOCC3)nc(-n3c(C(F)F)nc4ccccc43)n2)cn1 [Compound A45, 4-(2-(difluoromethyl)-1H-benzo[d]imidazol-1-yl)-N-(2-methyl-1-(2-(1-methyl-1H-pyrazol-4-yl)phenyl)propan-2-yl)-6-morpholino-1,3,5-triazin-2-amine]
0.2 to 0.5	≤ 0.1	A’	Cn1nccc1-c1ccccc1CC(C)(C)Nc1nc(N2CCOCC2)nc(-n2c(C(F)F)nc3ccccc32)n1 [Compound A46, 4-(2-(difluoromethyl)-1H-benzo[d]imidazol-1-yl)-N-(2-methyl-1-(2-(1-methyl-1H-pyrazol-5-yl)phenyl)propan-2-yl)-6-morpholino-1,3,5-triazin-2-amine]
0.2 to 0.5	≤ 0.1	B’	Cc1cccc(CC(C)(C)Nc2nc(N3CCOCC3)nc(-n3c(C(F)F)nc4ccccc43)n2)c1 [Compound A49, 4-(2-(difluoromethyl)-1H-benzo[d]imidazol-1-yl)-N-(2-methyl-1-m-tolylpropan-2-yl)-6-morpholino-1,3,5-triazin-2-amine]
0.2 to 0.5	≤ 0.1	B’	COc1cc(CC(C)(C)Nc2nc(N3CCOCC3)nc(-n3c(C(F)F)nc4ccccc43)n2)ccc1F [Compound A50, 4-(2-(difluoromethyl)-1H-benzo[d]imidazol-1-yl)-N-(1-(4-fluoro-3-methoxyphenyl)-2-methylpropan-2-yl)-6-morpholino-1,3,5-triazin-2-amine]
0.1 to 0.2	0.1 to 0.2	C’	CC(C)(Cc1ccc(F)cc1F)Nc1nc(N2CCOCC2)nc(-n2c(C(F)F)nc3ccccc32)n1 [Compound A51, 4-(2-(difluoromethyl)-1H-benzo[d]imidazol-1-yl)-N-(1-(2,4-difluorophenyl)-2-methylpropan-2-yl)-6-morpholino-1,3,5-triazin-2-amine]
0.1 to 0.2	≤ 0.1	C’	CC(C)(Cc1c(F)cccc1F)Nc1nc(N2CCOCC2)nc(-n2c(C(F)F)nc3ccccc32)n1 [Compound A52, 4-(2-(difluoromethyl)-1H-benzo[d]imidazol-1-yl)-N-(1-(2,6-difluorophenyl)-2-methylpropan-2-yl)-6-morpholino-1,3,5-triazin-2-amine]
> 0.5	0.1 to 0.2	A’	CC(C)(Cc1ccccc1-c1ccccc1F)Nc1nc(N2CCOCC2)nc(-n2c(C(F)F)nc3ccccc32)n1 [Compound A59, 4-(2-(difluoromethyl)-1H-benzo[d]imidazol-1-yl)-N-(1-(2′-fluorobiphenyl-2-yl)-2-methylpropan-2-yl)-6-morpholino-1,3,5-triazin-2-amine]
> 0.5	0.2 to 0.5	A’	Cc1ccccc1-c1ccccc1CC(C)(C)Nc1nc(N2CCOCC2)nc(-n2c(C(F)F)nc3ccccc32)n1 [Compound A60, 4-(2-(difluoromethyl)-1H-benzo[d]imidazol-1-yl)-N-(2-methyl-1-(2′-methylbiphenyl-2-yl)propan-2-yl)-6-morpholino-1,3,5-triazin-2-amine]
> 0.5	0.1 to 0.2	A’	CC(C)(Cc1ccccc1-c1ccccc1Cl)Nc1nc(N2CCOCC2)nc(-n2c(C(F)F)nc3ccccc32)n1 [Compound A61, 4-(2-(difluoromethyl)-1H-benzo[d]imidazol-1-yl)-N-(1-(6′-chlorobiphenyl-2-yl)-2-methylpropan-2-yl)-6-morpholino-1,3,5-triazin-2-amine]
0.2 to 0.5	≤ 0.1	A’	CC(C)(Cc1ccccc1-c1cccnc1F)Nc1nc(N2CCOCC2)nc(-n2c(C(F)F)nc3ccccc32)n1 [Compound A62]
> 0.5	≤ 0.1	A’	CC(C)(Cc1ccccc1-c1cncnc1)Nc1nc(N2CCOCC2)nc(-n2c(C(F)F)nc3ccccc32)n1 [Compound A63, 4-(2-(difluoromethyl)-1H-benzo[d]imidazol-1-yl)-N-(2-methyl-1-(2-(pyrimidin-5-yl)phenyl)propan-2-yl)-6-morpholino-1,3,5-triazin-2-amine]
> 0.5	≤ 0.1	A’	CN1CCN(c2cc(-c3ccccc3CC(C)(C)Nc3nc(N4CCOCC4)nc(-n4c(C(F)F)nc5ccccc54)n3)ccn2)CC1 [Compound A64, 4-(2-(difluoromethyl)-1H-benzo[d]imidazol-1-yl)-N-(2-methyl-1-(2-(2-(4-methylpiperazin-1-yl)pyridin-4-yl)phenyl)propan-2-yl)-6-morpholino-1,3,5-triazin-2-amine]
